Here are results for one compound from PMC9511493, “2-(Fluoromethoxy)-4′-(S-methanesulfonimidoyl)-1,1′-biphenyl (UCM-1306), an Orally Bioavailable Positive Allosteric Modulator of the Human Dopamine D1 Receptor for Parkinson’s Disease” (Journal of Medicinal Chemistry, 2022).

Series [1] can be described thus: plasma, brain and CSF levels after a single oral dose in mice. Format: in vivo, mouse. On the procedure: Prior to the evaluation of the new D1R PAM 26 in animal models, the in vivo cerebrospinal fluid (CSF) and brain permeability were studied. […] Concentrations in the CSF and brain were quantifiable up to 4 h. Brain-to-plasma concentration ratios were in the range of 0.55–1.15 between 0.5 and 4 h and CSF-to-plasma concentration ratio in the range of 0.13–0.21 between 0.5 and 4 h.
Figure 5 Compound levels in the plasma, brain, and CSF of mouse administered with 5 mg/kg (po) of compound 26. Horizontal dotted line indicates the EC50 value of the compound.

Series [2] is described as follows: stability in mouse liver homogenate. In kind it is in vitro ADME. The conditions noted are these: remaining compound after 24 h. The method, then: HSA binding assay. The assessment of compounds binding to HSA was performed by incubating a fixed concentration of the compound with different concentrations of immobilized HSA, using the TRANSILXL HSA Binding Kit (TMP-0210- 2096, Sovicell). An 8-well unit of the TRANSIL assay plate was used for each compound : six wells contain increasing concentrations of HSA immobilized on silica beads suspended in PBS at pH 7.4, and two wells contain buffer only and serve as references to account for nonspecific binding. The TRANSIL assay plate was thawed for 3 h at rt and centrifuged at 750g for 5 s. […] After this time, the plate was centrifuged at 750gfor 10 min, and 50 μL of the supernatants were transferred for analytical quantification by HPLC-MS using selected ion monitoring (SIM). The binding percentage was calculated from the remaining free compound concentration in the supernatant of each well, using the spreadsheet and algorithms supplied with the kit.
Stability in mouse serum. […] Supernatants were then analyzed by HPLC-MS using SIM mode, and quantification was estimated by using the peak area integration normalized with an internal standard.
Stability assay in mouse liver homogenate. Stability of test compounds and reference compound propranolol was determined by incubation in liver homogenates following previously reported procedure. […]

SMILES strings stand for the structures.

Consider `CS(=N)(=O)c1ccc(-c2ccccc2OCF)cc1` (stereo not drawn) [Compound 26, 2-(Fluoromethoxy)-4′-(S-methanesulfonimidoyl)-1,1′-biphenyl], for which the melting point (in general, the temperature, or range, at which the solid turns liquid) is 144 to 145 °C. Further, in series [1] (5 mg/kg po), the “CSF-to-plasma free concentration ratio” value is given as “approximately 1”. For the same compound, in series [1] (5 mg/kg po, male BALB/c mice), the “time up to which CSF concentrations were quantifiable” value worked out at 4 h, the “time up to which brain concentrations were quantifiable” value came out at 4 h and the “time up to which plasma concentrations were quantifiable” value amounted to 8 h. In series [1] (male, BALB/c, mouse, CSF and plasma, 5 mg/kg po, between 0.5 and 4 h, read-out: CSF-to-plasma concentration ratio), the Kp fell in the range of 0.13 to 0.21. Besides, in series [1] (male, BALB/c, mouse, brain and plasma, 5 mg/kg po, between 0.5 and 4 h, read-out: brain-to-plasma concentration ratio), the Kp at 4 h was 0.55 to 1.15. In addition, the time to peak (Tmax) (usually the time at which the peak concentration occurs) at 8 h in series [1] (mouse, plasma, 5 mg/kg single oral dose, male BALB/c mice) is 30 min. Moreover, in series [2], the “liver homogenate stability (%)” value is recorded as 65%.
